From patent publication US20030207843A1, “Treatment of drug-resistant human immunodeficiency virus infection” (priority 1999, published 2003)
Where two headings read alike, the source gives them in different places.

Experiments:
Assay type in all cases: cell-based
HIV-1LAI M184V = assay: p24 reduction assay in MT-2 cells, M184V; conditions: for EC50: M184V; for Fold-resistance: M184V relative to wild type virus
Method: (§1) Cells. MT-2 cells (AIDS Research and Reference Reagent Program, National Institute of Allergy and Infectious Diseases, National Institutes of Health) were maintained in RPMI 1640 supplemented with 10% fetal bovine serum (FBS; JRH Biosciences, Lenexa, Kans.), 10 mM HEPES buffer, 50 IU/ml penicillin and 50 μg/ml streptomycin.
(§2) Antiviral Susceptibility Assays. The antiviral activity of each compound was determined by inoculating MT-2 cells with HIV-1LAI at a multiplicity of infection (MOI) of 0.01 TCID50/cell, followed by incubation in the presence of three-fold serial drug dilutions (3 wells per dilution) (see Mellors, et. al., Antimicrob. Agents Chemother. 39:1087-1092). Five or seven days after infection, culture supernatants were harvested, lysed with 0.5% triton-X 100 and assayed for p24 antigen concentration using a commercial ELISA assay (DuPont, NEN Products, Wilmington, Del.). The antiviral activity of the compounds is expressed as the IC50, which is the concentration required to inhibit 50% of p24 antigen production. The fold-resistance of a test virus is calculated by dividing the IC50 of the test virus by the IC50 of the HIV-1LAI control virus.
(§3) Generation of Mutant Recombinant HIV-1. HIV-1 containing the desired mutations were generated by oligonucleotide directed mutagenesis (Altered Sites II, Promega) as previously described (Mellors, et. al., Molecular Pharm. 41:446-451). After mutagenesis, mutant RT was subcloned into the pxxHIV-1LAI cloning vector using the silent XmaI and XbaI restriction sites located at the 5′ and 3′ ends of RT. Clones were DNA sequenced to verify the presence of the desired mutation(s) and electroporated into MT-2 cells as described above to generate infectious mutant recombinant HIV-1.
(§4) Mutant RT was generated via oligonucleotide-directed mutagenesis and ligated into the pXXHIV-1LAI cloning vector. Cloning was facilitated by the presence of two silent restriction sites at the 5′ and 3′ ends (Xma1 and Xba1, respectively) of pXXHIV-1LAI RT. Infectious mutant recombinant HIV-1 was generated by electroporating MT-2 cells with mutated pXXHIV-1LAI clones. The presence of the desired mutations was verified by DNA sequencing.
(§5) The multi-drug resistant HIV-1 strains, 11163p1 and 11588p1, are human clinical isolates having the RT mutations indicated. HIV-1 strains treated with the lipid analogs of the present invention include wild type, e.g., xxLAI, and the like, single mutation, e.g., xxLAI MI 84V (resistant to 3TC), xxLAI L74V (resistant to ddI and ddC), xxLAI K65R (resistant to ddI, ddC, DAPD, DXG, tenofovir, and adefovir), xxLAI T215Y (resistant to AZT), and the like, double mutations, e.g., xxLAI M41 L/T215Y (resistant to AZT), xxLAI MI 84V/T215Y (resistant to 3TC and AZT), and the like, and multiple mutations, e.g., xxLAI 4XAZT ((D67N, K70R, T215Y, K219Q) resistant to AZT)), xxLAI 4XAZT/M184V ((D67N, K70R, M 184V, T215Y, K219Q) resistant to AZT and 3TC), xxLAI M5456-12 (AZT+NNRTI resistant: D67N, K70R, K103N, T215Y), xxLAI G2-3g (AZT/3TC co-resistant: M41L, D67N, M184V, H208Y, L210W, R211K, L214F, T215Y, 1293V, E297A), 11163 (multinucleoside resistant virsus: M41L, A62V, V751, F77L, K103N, F116Y, Q151M, Y181C, M184V), 11588 (multinucleoside resistant virsus: A62V, K65R, K70R, V751, F77L, F116Y, Q151M, M184V, K219Q), and the like.

HIV-1LAI M41L/T215Y = assay: p24 reduction assay in MT-2 cells, M41L/T215Y; conditions: for EC50: M41L/T215Y; for Fold-resistance: M41L/T215Y relative to wild type virus
Method: as §1, §2, §3, §4, §5

HIV-1LAI 4XAZT/K103N = assay: p24 reduction assay in MT-2 cells, 4XAZT/K103N; conditions: for Fold-resistance: 4XAZT/K103N relative to wild type virus
Method: as §1, §2, §3, §4, §5

HIV-1LAI W88S = assay: p24 reduction assay in MT-2 cells, W88S; conditions: Table 7; for EC50: W88S; for Fold-resistance: W88S relative to wild type virus
Method: as §1, §2, §3, §4
(§6) Invention compounds were also evaluated against a panel of HIV-1LAI derived recombinants resistant to PFA and the PFA invention compounds, as shown in Table 7.

HIV-1LAI E89G = assay: p24 reduction assay in MT-2 cells, E89G; conditions: Table 7; for EC50: E89G; for Fold-resistance: E89G relative to wild type virus
Method: as §1, §2, §3, §4, §6

HIV-1LAI Q161L/H208Y = assay: p24 reduction assay in MT-2 cells, Q161L/H208Y; conditions: Table 7; for EC50: Q161L/H208Y; for Fold-resistance: Q161L/H208Y relative to wild type virus
Method: as §1, §2, §3, §4, §6

HIV-1LAI 4XAZT/Q161L = assay: p24 reduction assay in MT-2 cells, 4XAZT/Q161L; conditions: Table 7; for EC50: 4XAZTQ161L; for Fold-resistance: 4XAZTQ161L relative to wild type virus
Method: as §1, §2, §3, §4, §6

[1] = Table 1, AZT/K103N, MOI 0.01, read-out: EC50
[2] = Table 5, 4XAZT/K103N, mean ± SD, read-out: EC50
[3] = Human immunodeficiency virus 1, MT2, Table 1, MOI 0.01
[4] = Human immunodeficiency virus 1, MT2

| SMILES | EC50 (HIV-1LAI M184V; Table 1, MOI 0.01) [nM] | Fold-resistance (HIV-1LAI M184V; Table 3) | EC50 (HIV-1LAI M184V; Table 3, mean ± SD) [nM] | EC50 (HIV-1LAI M41L/T215Y; Table 1, MOI 0.01) [nM] | Fold-resistance (HIV-1LAI M41L/T215Y; Table 5) | EC50 (HIV-1LAI M41L/T215Y; Table 5, mean ± SD) [nM] | EC50 (HIV-1LAI 4XAZT/K103N; [1]) [nM] | Fold-resistance (HIV-1LAI 4XAZT/K103N; Table 5) | EC50 (HIV-1LAI 4XAZT/K103N; [2]) [nM] | EC50 (HIV-1LAI W88S) [nM] | Fold-resistance (HIV-1LAI W88S) | EC50 (HIV-1LAI E89G) [nM] | Fold-resistance (HIV-1LAI E89G) | EC50 (HIV-1LAI Q161L/H208Y) [nM] | Fold-resistance (HIV-1LAI Q161L/H208Y) | EC50 (HIV-1LAI 4XAZT/Q161L) [nM] | Fold-resistance (HIV-1LAI 4XAZT/Q161L) | also measured |
| --- | --- | --- | --- | --- | --- | --- | --- | --- | --- | --- | --- | --- | --- | --- | --- | --- | --- | --- |
| CCCCCCCCCCCCCCCCCCOC[C@@H](O)COP(=O)(O)C(=O)O [B-PFA, 1-O-octadecyl-sn-glycero-3-PFA] | 2290 | (0.7) | 1930 ± 540 | 1250 | (0.5) | 940 ± 1080 | 2720 | (2.2) | 3870 ± 2360 | 20700 | 1.20 (11.9) | > 30000 | (>17.2) | > 30000 | (>17.2) | 6640 | 2.10 (2.5) | – |
| CCCCCCCCCCCCCCCCCCOC[C@H](COP(=O)(O)C(=O)O)OCC [EB-PFA, 1-O-octadecyl-2-O-ethyl-sn-glycero-3-PFA] | 580 | (0.7) | 1360 ± 930 | 410 | (0.5) | 300 ± 350 | 800 | (1.4) | 880 ± 140 | 2390 | 0.15 (2.7) | > 26100 | (>29.0) | 7020 | – | 1180 | – | – |
| CCCCCCCCCCCCCCCCCCOC[C@H](COP(=O)(O)C(=O)O)OC [MB-PFA, 1-O-octadecyl-2-O-methyl-sn-glycero-3-PFA] | 480 | (1.7) | 1510 ± 450 | 130 | (0.4) | 180 ± 110 | – | (1.2) | 600 ± 380 | 2490 | 0.12 (3.2) | > 30000 | (>39.0) | 12800 | 9.00 (17.7) | 1870 | 0.33 (2.2) | – |
| O=C(O)P(=O)(O)O [PFA, phosphonoformate, reference compound] | – | (1.7) | – | – | (0.8) | – | – | (1.1) | – | – | – | – | – | – | – | – | 9.40 (2.3) | EC50 (HIV-1LAI M184V; [3]): 15700 nM; EC50 (HIV-1LAI M184V; Human immunodeficiency virus 1, MT2, Table 3, mean ± SD): 33400 ± 18700 nM; EC50 (HIV-1LAI M41L/T215Y; [3]): 16200 nM; EC50 (HIV-1LAI M41L/T215Y; Human immunodeficiency virus 1, MT2, Table 5, mean ± SD): 13900 ± 4140 nM; EC50 (HIV-1LAI 4XAZT/K103N; Human immunodeficiency virus 1, MT2, Table 1, AZT/K103N, MOI 0.01): 18600 nM; EC50 (HIV-1LAI 4XAZT/K103N; Human immunodeficiency virus 1, MT2, Table 5, 4XAZT/K103N, mean ± SD, read-out: EC50): 19200 ± 8850 nM; EC50 (HIV-1LAI W88S; [4]): 67100 nM; EC50 (HIV-1LAI E89G; [4]): 241000 nM; EC50 (HIV-1LAI Q161L/H208Y; [4]): 126000 nM; EC50 (HIV-1LAI 4XAZT/Q161L; [4]): 39900 nM |
